In US8163728B2, “Pyrazoles” (Hoffmann-La Roche Inc., priority 2009, dated 2012):

Biological target: T1, GABA A α5 (Homo sapiens, UniProt P18507+P31644)
T1 construct: expressed in transfected cells; host or cells: HEK293 cells, transiently transfected; membranes prepared from cell pellets
Assay: [3H]flumazenil competition binding, human GABA A α5β3γ2 receptors in HEK293 cell membranes
Conditions: human receptor α5β3γ2 transiently transfected in HEK293; 0.5 nM [3H]flumazenil; 1 hour at 4° C.; means of two determinations; read-out: hKi GABA A α5
Experimental: The affinity of compounds at GABA A receptor subtypes was measured by competition for [3H]flumazenil (85 Ci/mmol; Roche) binding to HEK293 cells expressing rat (stably transfected) or human (transiently transfected) receptors of composition α1β3γ2, α2β3γ2, α3β3γ2 and α5β3γ2.
Cell pellets were suspended in Krebs-tris buffer (4.8 mM KCl, 1.2 mM CaCl2, 1.2 mM MgCl2, 120 mM NaCl, 15 mM Tris; pH 7.5; binding assay buffer), homogenized by polytron for ca. 20 sec on ice and centrifuged for 60 min at 4° C. (50000 g; Sorvall, rotor: SM24=20000 rpm). The cell pellets were re-suspended in Krebs-tris buffer and homogenized by polytron for ca. 15 sec on ice. Protein was measured (Bradford method, Bio-Rad) and aliquots of 1 mL were prepared and stored at −80° C.
Assays were incubated to equilibrium for 1 hour at 4° C. and harvested onto GF/C uni-filters (Packard) by filtration using a Packard harvester and washing with ice-cold wash buffer (50 mM Tris; pH 7.5). After drying, filter-retained radioactivity was detected by liquid scintillation counting. Ki values were calculated using Excel-Fit (Microsoft) and are the means of two determinations.

Structure (SMILES)	Ki [nM]
CCCCc1noc(C)c1COc1cc(C(=O)NC2CCOC2)[nH]n1 (single isomer, unassigned; (+)) [Example 35, (+)-(R or S)-3-((3-Butyl-5-methylisoxazol-4-yl)methoxy)-N-(tetrahydrofuran-3-yl)-1H-pyrazole-5-carboxamide]	6
Cc1onc(-c2ccc(F)cc2)c1/C=C/c1cc(C(=O)NC(C)C)n(C)n1 [Example 122, 5-{(E)-2-[3-(4-Fluoro-phenyl)-5-methyl-isoxazol-4-yl]vinyl}-2-methyl-2H-pyrazole-3-carboxylic acid isopropylamide]	1.6
Cc1onc(-c2ccc(F)cn2)c1COc1cc(C(=O)NN(C)C)n(C)n1 [Example 82, 5-[3-(5-Fluoro-pyridin-2-yl)-5-methyl-isoxazol-4-ylmethoxy]-2-methyl-2H-pyrazole-3-carboxylic acid N′,N′-dimethyl-hydrazide]	29.5
Cc1onc(-c2ccccc2)c1/C=C/c1cc(C(=O)NC(C)C)[nH]n1 [Example 118, 5-[(E)-2-(5-Methyl-3-phenyl-isoxazol-4-yl)-vinyl]-2H-pyrazole-3-carboxylic acid iso-propylamide]	5.1
Cc1onc(-c2ccc(F)cc2)c1CNc1cc(C(=O)NC2(C)COC2)n(C)n1 [Example 148, 5-{[3-(4-Fluoro-phenyl)-5-methyl-isoxazol-4-ylmethyl]-amino}-2-methyl-2H-pyrazole-3-carboxylic acid (3-methyl-oxetan-3-yl)-amide]	5.4
Cc1onc(-c2ccc(F)cn2)c1COc1cc(C(=O)NCCO)[nH]n1 [Example 20, 5-[3-(5-Fluoro-pyridin-2-yl)-5-methyl-isoxazol-4-ylmethoxy]-2H-pyrazole-3-carboxylic acid (2-hydroxy-ethyl)-amide]	4
CCC(CO)NC(=O)c1cc(OCc2c(-c3ccc(F)cc3)noc2C)nn1C (single isomer, unassigned; (-)) [Example 69, (−)-5-[3-(4-Fluoro-phenyl)-5-methyl-isoxazol-4-ylmethoxy]-2-methyl-2H-pyrazole-3-carboxylic acid ((R or S)-1-hydroxymethyl-propyl)-amide]	3.5
Cc1onc(-c2ccc(F)cc2)c1CNc1cc(C(=O)NC(C)C)n(C)n1 [Example 151, 5-{[3-(4-Fluoro-phenyl)-5-methyl-isoxazol-4-ylmethyl]-amino}-2-methyl-2H-pyrazole-3-carboxylic acid isopropylamide]	13.6
Cc1onc(-c2ccc(F)cc2)c1/C=C/c1cc(C(=O)NCC(F)(F)F)[nH]n1 [Example 133, 5-{(E)-2-[3-(4-Fluoro-phenyl)-5-methyl-isoxazol-4-yl]vinyl}-2H-pyrazole-3-carboxylic acid (2,2,2-trifluoro-ethyl)-amide]	4.1
Cc1onc(-c2ccc(F)cn2)c1COc1cc(C(=O)NN2CCCC2)[nH]n1 [Example 24, 5-[3-(5-Fluoro-pyridin-2-yl)-5-methyl-isoxazol-4-ylmethoxy]-2H-pyrazole-3-carboxylic acid pyrrolidin-1-ylamide]	3.5
Cc1onc(-c2ccccc2)c1COc1cc(C(=O)NC2CCOC2)[nH]n1 (racemic) [Example 4, Rac-5-(5-Methyl-3-phenyl-isoxazol-4-ylmethoxy)-2H-pyrazole-3-carboxylic acid (tetra-hydro-furan-3-yl)-amide]	6.6
Cc1onc(-c2ccccn2)c1CNc1cc(C(=O)NC2(C)COC2)n(C)n1 [Example 162, 1-Methyl-3-((5-methyl-3-(pyridin-2-yl)isoxazol-4-yl)methylamino)-N-(3-methyloxetan-3-yl)-1H-pyrazole-5-carboxamide]	30.3
Cc1onc(-c2ccccc2)c1COc1cc(C(=O)NCCO)[nH]n1 [Example 6, 5-(5-Methyl-3-phenyl-isoxazol-4-ylmethoxy)-2H-pyrazole-3-carboxylic acid (2-hydroxy-ethyl)-amide]	17.5
Cc1onc(-c2ccccn2)c1COc1cc(C(=O)NC(C)CO)n(C)n1 (stereo in doubt) [Example 80, 2-Methyl-5-(5-methyl-3-pyridin-2-yl-isoxazol-4-ylmethoxy)-2H-pyrazole-3-carboxylic acid ((S)-2-hydroxy-1-methyl-ethyl)-amide]	23.5
Cc1onc(-c2ccc(F)cc2)c1COc1cc(C(=O)NCC(C)(C)O)n(C)n1 [Example 66, 5-[3-(4-Fluoro-phenyl)-5-methyl-isoxazol-4-ylmethoxy]-2-methyl-2H-pyrazole-3-carboxylic acid (2-hydroxy-2-methyl-propyl)-amide]	6.5
Cc1onc(-c2ccccc2)c1COc1cc(C(N)=O)n(C)n1 [Example 45, 2-Methyl-5-(5-methyl-3-phenyl-isoxazol-4-ylmethoxy)-2H-pyrazole-3-carboxylic acid amide]	47.3

Structure (SMILES)	Ki [nM]
Cc1onc(-c2ccc(F)cc2)c1COc1cc(C(=O)NN2CCOCC2)n(C)n1 [Example 50, 5-[3-(4-Fluoro-phenyl)-5-methyl-isoxazol-4-ylmethoxy]-2-methyl-2H-pyrazole-3-carboxylic acid morpholin-4-ylamide]	3.5
Cc1onc(-c2ccc(F)cc2)c1CNc1cc(C(N)=O)n(C)n1 [Example 145, 5-{[3-(4-Fluoro-phenyl)-5-methyl-isoxazol-4-ylmethyl]-amino}-2-methyl-2H-pyrazole-3-carboxylic acid amide]	69.6
O=C(NN1CCOCC1)c1cc(OCc2conc2-c2ccc(F)cn2)n[nH]1 [Example 25, 5-[3-(5-Fluoro-pyridin-2-yl)-isoxazol-4-ylmethoxy]-2H-pyrazole-3-carboxylic acid morpholin-4-ylamide]	13.6
Cc1onc(-c2ccc(F)cc2)c1COc1cc(C(=O)NCC2(O)CC2)n(C)n1 [Example 61, 5-[3-(4-Fluoro-phenyl)-5-methyl-isoxazol-4-ylmethoxy]-2-methyl-2H-pyrazole-3-carboxylic acid (1-hydroxy-cyclopropylmethyl)-amide]	7.4
Cc1onc(-c2ccc(F)cc2)c1COc1cc(C(=O)NC2(C)COC2)n(C)n1 [Example 58, 5-[3-(4-Fluoro-phenyl)-5-methyl-isoxazol-4-ylmethoxy]-2-methyl-2H-pyrazole-3-carboxylic acid (3-methyl-oxetan-3-yl)-amide]	4.3
Cc1onc(-c2ccc(F)cc2)c1COc1cc(C(=O)N[C@H]2CCC[C@@H]2O)n(C)n1 [Example 73, (+5-[3-(4-Fluoro-phenyl)-5-methyl-isoxazol-4-ylmethoxy]-2-methyl-2H-pyrazole-3-carboxylic acid ((1R,2R)-2-hydroxy-cyclopentyl)-amideand/or 5-[3-(4-Fluoro-phenyl)-5-methyl-isoxazol-4-ylmethoxy]-2-methyl-2H-pyrazole-3-carboxylic acid ((18,28)-2-hydroxy-cyclopentyl)-amide]	9.4
Cn1nc(OCc2c(-c3ccc(Cl)cc3)noc2CO)cc1C(N)=O [Example 102, 5-[3-(4-Chloro-phenyl)-5-hydroxymethyl-isoxazol-4-ylmethoxy]-2-methyl-2H-pyrazole-3-carboxylic acid amide]	12.6
CCCCc1noc(C)c1COc1cc(C(=O)NN2CCCCC2)[nH]n1 [Example 41, 5-(3-Butyl-5-methyl-isoxazol-4-ylmethoxy)-2H-pyrazole-3-carboxylic acid piperidin-1-ylamide]	27.2
Cn1nc(OCc2c(-c3ccc(F)cc3)noc2CO)cc1C(=O)NC1CCOCC1 [Example 91, 5-[3-(4-Fluoro-phenyl)-5-hydroxymethyl-isoxazol-4-ylmethoxy]-2-methyl-2H-pyrazole-3-carboxylic acid (tetrahydro-pyran-4-yl)-amide]	1
Cc1onc(-c2ccc(F)cc2)c1/C=C/c1cc(C(=O)N2CCS(=O)(=O)CC2)[nH]n1 [Example 131, (1,1-Dioxo-1,6-thiomorpholin-4-yl)-(5-{(E)-2-[3-(4-fluoro-phenyl)-5-methyl-isoxazol-4-yl]-vinyl}-2H-pyrazol-3-yl)-methanone]	36.5
Cc1onc(-c2ccc(F)cn2)c1CNc1cc(C(=O)NC2CC2)n(C)n1 [Example 165, N-Cyclopropyl-3-((3-(5-fluoropyridin-2-yl)-5-methylisoxazol-4-yl)methylamino)-1-methyl-1H-pyrazole-5-carboxamide]	41.1
Cc1onc(-c2ccc(F)cn2)c1CNc1cc(C(=O)NC(C)C)n(C)n1 [Example 163, 3-((3-(5-Fluoropyridin-2-yl)-5-methylisoxazol-4-yl)methylamino)-N-isopropyl-1-methyl-1H-pyrazole-5-carboxamide]	99.5
Cc1onc(-c2ccc(F)cc2)c1COc1cc(C(=O)NN2CCCC2)[nH]n1 [Example 10, 5-[3-(4-Fluoro-phenyl)-5-methyl-isoxazol-4-ylmethoxy]-2H-pyrazole-3-carboxylic acid pyrrolidin-1-ylamide]	3.8
Cc1onc(-c2ccccn2)c1COc1cc(C(=O)NC2CCOCC2)n[nH]1 [Example 15, 5-(5-Methyl-3-pyridin-2-yl-isoxazol-4-ylmethoxy)-1H-pyrazole-3-carboxylic acid (tetrahydropyran-4-yl)-amide]	2.5
Cc1onc(-c2ccc(F)cn2)c1COc1cc(C(=O)NN(C)C)[nH]n1 [Example 22, 5-[3-(5-Fluoro-pyridin-2-yl)-5-methyl-isoxazol-4-ylmethoxy]-2H-pyrazole-3-carboxylic acid N′,N′-dimethyl-hydrazide]	6.7
